Assay [1] deals with T1, MC4 receptor (MC4R) (Homo sapiens, UniProt P32245).
T1 construct: expressed in transfected cells; host or cells: CHO-CRE MC4R cells (membranes)
Briefly: Nle4, D-Phe7-α-MSH inhibition at the MC4 receptor (competition binding, SPA, CHO-CRE MC4R membranes). The method in brief:
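Competition binding by SPA used CHO-CRE MC4R membranes on WGA beads (0.15 ug membrane/well) with 0.06 nM [125I] Nle4, D-Phe7-α-MSH and 11 half-log competitor concentrations in duplicate. Buffer was 25 mM HEPES pH 7 with MgCl2, CaCl2, Pluronic F68 and protease inhibitors; incubation was 12 hours at room temperature. Non-specific binding was set with 100 nM SHU9119, and Ki was calculated.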

Assay [2] has as its target T2, MC3 receptor (MC3R) (Homo sapiens, UniProt P41968).
T2 construct: expressed in transfected cells; host or cells: CHO-CRE MC3R cells (membranes)
Briefly: Nle4, D-Phe7-α-MSH inhibition at the MC3 receptor (competition binding, SPA, CHO-CRE MC3R membranes). In short, it runs like this: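 Competition binding by SPA used CHO-CRE MC3R membranes on WGA beads with 0.06 nM [125I]Nle4,D-Phe7-α-MSH and 11 half-log competitor concentrations. Buffer was 25 mM HEPES, MgCl2, CaCl2, 1% Pluronic F68, pH7, incubated 12 h at room temperature. Non-specific binding was defined with 100 nM SHU9119, and Ki values were derived.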

T2 sequence (P41968 whole entry): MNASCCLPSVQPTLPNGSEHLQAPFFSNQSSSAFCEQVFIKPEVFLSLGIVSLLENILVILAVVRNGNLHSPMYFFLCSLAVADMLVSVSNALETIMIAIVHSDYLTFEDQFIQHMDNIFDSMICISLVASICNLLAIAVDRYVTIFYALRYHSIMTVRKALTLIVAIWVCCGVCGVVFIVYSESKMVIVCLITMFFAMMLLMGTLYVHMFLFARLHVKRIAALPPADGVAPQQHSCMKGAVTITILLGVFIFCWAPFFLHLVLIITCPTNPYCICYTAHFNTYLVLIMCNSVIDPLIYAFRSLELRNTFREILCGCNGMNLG
T1 sequence (P32245 whole entry): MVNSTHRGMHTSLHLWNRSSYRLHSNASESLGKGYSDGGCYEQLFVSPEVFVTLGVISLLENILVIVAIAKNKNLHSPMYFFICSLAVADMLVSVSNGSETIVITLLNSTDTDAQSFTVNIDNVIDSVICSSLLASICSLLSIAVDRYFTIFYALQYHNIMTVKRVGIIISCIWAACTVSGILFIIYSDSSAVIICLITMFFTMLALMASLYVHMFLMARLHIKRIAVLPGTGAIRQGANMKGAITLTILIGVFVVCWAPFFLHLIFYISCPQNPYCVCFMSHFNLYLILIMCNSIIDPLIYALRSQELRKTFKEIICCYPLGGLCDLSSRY

One may read the Ki as a dissociation constant, usually derived from enzyme kinetics or from competition with a known ligand. Low values mean a stronger hold on the target, high ones a looser hold on the target. Consider `CNC(=O)N1CCN(C(=O)[C@@H]2CN(c3cccnn3)C[C@H]2c2ccc(F)cc2F)CCCC1c1ccccc1` (mixture of isomers) [Example 73], for which the Ki in assay [1] came out at 225 nM; in assay [2] it was 981 nM.

On to `CS(=O)(=O)N1CCN(C(=O)[C@@H]2CN(c3ccc(C#N)nn3)C[C@H]2c2ccc(F)cc2F)CCCC1c1ccc(Cl)cc1` (mixture of isomers) [Example 76], for which the inhibition constant (Ki) worked out at 344 nM in assay [1] and 960 nM in assay [2].

With `CS(=O)(=O)N1CCN(C(=O)[C@@H]2CN(c3ccc(=O)[nH]n3)C[C@H]2c2ccc(F)cc2F)CCCC1c1ccc(Cl)cc1` (mixture of isomers) [Example 79], the Ki came out at 107 nM in assay [1] and 1110 nM in assay [2].

Consider `CCCC(=O)N1CCN(C(=O)[C@@H]2CN(c3cccnn3)C[C@H]2c2ccc(F)cc2F)CCCC1c1ccccc1` (mixture of isomers) [Example 101], for which the Ki is 77.9 nM in assay [1] and 715 nM in assay [2].

For the compound `CC(=O)N1CCN(C(=O)[C@@H]2CN(c3cccnn3)C[C@H]2c2ccc(F)cc2F)CCCC1c1ccccc1` (mixture of isomers) [Example 103], the inhibition constant Ki in assay [1] turned out to be 316 nM; in assay [2] it was 1540 nM.

In the case of `COc1ccc([C@@H]2CN(c3ccc(=O)n(C)n3)C[C@H]2C(=O)N2CCCC(c3ccc(Cl)cc3)N(S(C)(=O)=O)CC2)c(F)c1` (single isomer, unassigned) [Example 117], the results for the Ki in assay [1] and in assay [2] were 33.6 nM and 1150 nM, respectively.

Consider `CC(=O)N1CCN(C(=O)[C@@H]2CN(c3ccc4nncn4n3)C[C@H]2c2ccc(Cl)cn2)CCC[C@H]1c1ccc(Cl)cc1` [Example 6, 6-[(3S,4S)-3-{[4-acetyl-5S-(4-chlorophenyl)-1,4-diazocan-1-yl]carbonyl}-4-(5-chloropyridin-2-yl)pyrrolidin-1-yl][1,2,4]triazolo[4,3-b]pyridazine], for which the Ki was found to be 28.4 nM in assay [1] and 89.5 nM in assay [2].

As to `CCC(=O)N1CCN(C(=O)[C@@H]2CN(C(C)(C)C)C[C@H]2c2ccc(F)cc2F)CCC[C@H]1c1ccc(Cl)cc1` [Example 10], the values for the inhibition constant (Ki) in assay [1] and in assay [2] were 300 nM and 6590 nM, respectively.

As to `CC(C)C(=O)N1CCN(C(=O)[C@@H]2CN(C(C)(C)C)C[C@H]2c2ccc(F)cc2F)CCC[C@H]1c1ccc(Cl)cc1` [Example 11], the Ki in assay [1] amounted to 200 nM; in assay [2] it was 4090 nM.

Take `CC(C)(C)N1C[C@@H](C(=O)N2CCC[C@@H](c3ccc(Cl)cc3)N(C(=O)C3CCC3)CC2)[C@H](c2ccc(F)cc2F)C1` [Example 14]: the Ki amounted to 378 nM in assay [1] and 4060 nM in assay [2].

With `CC(C)(C)C(=O)N1CCN(C(=O)[C@@H]2CN(C(C)(C)C)C[C@H]2c2ccc(F)cc2F)CCC[C@H]1c1ccc(Cl)cc1` [Example 15], the Ki in assay [1] was found to be 144 nM; in assay [2], 3380 nM.

Consider `CC(C)C(=O)N1CCN(C(=O)[C@@H]2CN(C(C)(C)C)C[C@H]2c2ccc(Cl)cn2)CCC[C@H]1c1ccc(Cl)cc1` [Example 20, 1-{[(3S,4S)-1-tert-butyl-4-(5-chloropyridin-2-yl)pyrrolidin-3-yl]carbonyl}-5S-(4-chlorophenyl)-4-isobutyryl-1,4-diazocane], for which the inhibitory constant (Ki) in assay [1] amounted to 68.6 nM; in assay [2], 386 nM.

Take `COC(=O)N1CCN(C(=O)[C@@H]2CN(c3ccc(=O)n(C)n3)C[C@H]2c2ccc(F)cc2F)CCC[C@@H]1c1ccc(Cl)cc1` [Example 56]: the Ki in assay [1] turned out to be 71.1 nM; in assay [2], 187 nM.

Take `COC(=O)N1CCN(C(=O)[C@@H]2CN(c3ccc(=O)n(C)n3)C[C@H]2c2ccc(F)cc2F)CCC[C@H]1c1ccc(Cl)cc1` [Example 66, methyl (8S-4-chlorophenyl)-4-{[(3S,4R)-4-(2,4-difluorophenyl)-1-(1-methyl-6-oxo-1,6-dihydropyridazin-3-yl)pyrrolidin-3-yl]carbonyl}-1,4-diazocane-1-carboxylate]: the Ki was determined as 71.1 nM in assay [1] and 187 nM in assay [2].

In the case of `COc1ccc([C@@H]2CN(c3ccc(C#N)nn3)C[C@H]2C(=O)N2CCC[C@@H](c3ccc(Cl)cc3)N(C(C)=O)CC2)c(F)c1` [Example 67], the Ki in assay [1] is 58.9 nM; in assay [2], 162 nM.

Consider `COc1ccc([C@@H]2CN(c3ccc(=O)[nH]n3)C[C@H]2C(=O)N2CCC[C@@H](c3ccc(Cl)cc3)N(C(C)=O)CC2)c(F)c1` [Example 68, 6-[(3S,4R)-3-{[4-acetyl-5S-(4-chlorophenyl)-1,4-diazocan-1-yl]carbonyl}-4-(2-fluoro-4-methoxyphenyl)pyrrolidin-1-yl]pyridazin-3(2H)-one], for which the Ki was determined as 21.7 nM in assay [1] and 308 nM in assay [2].

Take `COc1ccc([C@@H]2CN(C(C)(C)C)C[C@H]2C(=O)N2CCC[C@@H](c3ccc(Cl)cc3)N(C(C)=O)CC2)c(F)c1` [Example 70]: the Ki in assay [1] was 686 nM; in assay [2], 5880 nM.

For the compound `CC(=O)N1CCN(C(=O)[C@@H]2CN(c3ccc(C#N)nn3)C[C@H]2c2ccc(Cl)cn2)CCC[C@H]1c1ccc(Cl)cc1` [Example 72], the Ki in assay [1] is 71.4 nM; in assay [2] it was 141 nM.

As to `CS(=O)(=O)N1CCN(C(=O)C2CN(c3ccc(=O)[nH]n3)CC2c2ccc(F)cc2F)CCCC1c1ccc(F)cc1` (stereo not shown) [Example 78], the Ki in assay [1] is 303 nM; in assay [2], 3220 nM.

As for `COC(=O)N1CCN(C(=O)[C@@H]2CN(c3ccc(=O)[nH]n3)C[C@H]2c2ccc(OC)cc2F)CCC[C@@H]1c1ccc(Cl)cc1` [Example 90, methyl 8R-(4-chlorophenyl)-4-{[(3S,4R)-4-(2-fluoro-4-methoxyphenyl)-1-(6-oxo-1,6-dihydropyridazin-3-yl)pyrrolidin-3-yl]carbonyl}-1,4-diazocane-1-carboxylate], the Ki in assay [1] was 12 nM; in assay [2], 230 nM.

For `COC(=O)N1CCN(C(=O)[C@@H]2CN(C(C)(C)C)C[C@H]2c2ccc(OC)cc2F)CCCC1c1ccc(Cl)cc1` (stereo partly shown) [Example 91], the Ki in assay [1] is 383 nM; in assay [2] it was 4300 nM.

With `COC(=O)N1CCN(C(=O)[C@@H]2CN(c3ccc(=O)n(C)n3)C[C@H]2c2ccc(OC)cc2F)CCC[C@H]1c1ccc(Cl)cc1` [Example 118], the Ki in assay [1] stood at 24.7 nM; in assay [2] it was 178 nM.

On to `COC(=O)N1CCN(C(=O)[C@@H]2CN(c3ccc(=O)n(C)n3)C[C@H]2c2ccc(OC)cc2F)CCC[C@@H]1c1ccc(Cl)cc1` [Example 119, methyl 8R-(4-chlorophenyl)-4-{[(3S,4R)-4-(2-fluoro-4-methoxyphenyl)-1-(1-methyl-6-oxo-1,6-dihydropyridazin-3-yl)pyrrolidin-3-yl]carbonyl}-1,4-diazocane-1-carboxylate], for which the Ki in assay [1] turned out to be 22.3 nM; in assay [2] it was 900 nM.

(Values after US8592403B2, “Diazepine and diazocane compounds as MC4 agonists” (Pfizer Limited, priority 2008, dated 2013).)
